One data set in a line: in vivo. More on the design: species or system NMRI mice. The conditions noted are these: male, NMRI, mouse, iv. As to the method: Example 5: Pharmacokinetics Intravenous (iv) PK in Mouse Pharmacokinetic parameters of the test compounds were determined after intravenous administration to Naval Medical Research Institute (NMRI) mice. Male NMRI mice were obtained either from Charles River (Germany) or from Janvier (France) weighing approximately 30 g to 40 g. Mice were housed in standard cages with light cycle of 12-hour dark and 12-hour light. Standardized food and water were offered ad libitum to the animals during the whole experimental period. The respective peptide was dissolved in 50 mM phosphate buffer (pH 7.4) containing 3.5% mannitol. Intravenous doses of 30 nmol/kg were given via a tail vein. Serial blood samples were collected from the vena saphena into tubes containing EDTA as anticoagulant at different time points up to 48 hours post dosing. After centrifugation for approximately 5 minutes, plasma samples were transferred to 96-well Polymerase Chain Reaction (PCR) plates, immediately frozen and kept at approximately −20° C. until analyzed for plasma concentration by liquid chromatography mass spectrometry (LC-MS/MS). Individual plasma concentration-time profiles were analyzed by a non-compartmental approach, and the resulting pharmacokinetic parameters were determined.

A short description of data set [1]: Effect on acute food intake in normal NMRI mice. Type of data set: in vivo. The conditions noted are these: male NMRI mice, single subcutaneous dose 100 nmol/kg, normalized to vehicle group. As to the method:
Example 9: Pharmacodynamics Effect on Acute Food Intake in Normal NMRI Mice
Male NMRI mice were obtained from Charles River (Charles River, Research Models & Services Germany GmbH) or from JanVier (JanVier Labs, France) at 3 weeks of age. The animals were group housed 4 mice pr. cage under a 12/12 hours dark-light cycle, light off at 3 pm. Room temperature was controlled to 21° C.±1° C., with 60%±20% humidity. Animals had ad libitum access to regular rodent chow (KLIBA Nafag 3430 or Altromin 1324, Brogaarden, Denmark) and tap water. Animals were transferred at 6 weeks of age, 5-7 days before the start of the study to a real-time food intake monitoring system, HM-2 system (MBRose, Denmark), to allow acclimatization to experimental conditions. As the animals were uniquely identified with microchips, each individual animal was identified by its microchip upon entry and exit from the food channel. Randomization of the mice for each study group (n=8-11) was based on body weight measured the day before the start of the study. A vehicle-treated (50 mM acetate buffer pH 7.4 with 3.5% mannitol) group was included in each experiment. Six hours before the start of the night phase animals were fasted. One hour before the dark phase animals were dosed once subcutaneously with test peptide. Food intake was reported hourly for a period of 24 hours. The food intake of the treated groups was normalized (in %) to the average food intake of the group receiving vehicle (table 10). Statistical significance was evaluated using One-way analysis of variance with Bonferroni's multiple comparison test. P<0.05 was considered statistically significant.

Residues, ends and D or L forms follow the SMILES beside them.

As usually defined, the MRT is the average time that molecules of a dose stay in the body.

`CCCC[C@H](NC(=O)[C@H](CC(C)C)N(C)C(=O)[C@H](Cc1ccccc1)NC(=O)[C@H](Cc1ccc(O)cc1)NC(=O)CN1CCN(CCNC(=O)CN(C)C(=O)CN(C)C(=O)CN(C)C(=O)CN(C)C(=O)CN(C)C(=O)CN(C)C(=O)CN(C)C(=O)CN(C)C(=O)CN(C)C(=O)CN(C)C(=O)CN(C)C(=O)CN(C)C(=O)CN(C)C(=O)CN(C)C(=O)CN(C)C(=O)CC[C@H](NC(=O)CC[C@H](NC(=O)CC[C@H](NC(=O)CCCCCCCCCCCCCCCCCCC(=O)O)C(=O)O)C(=O)O)C(=O)O)CC1)C(=O)N[C@@H](CCN)C(=O)N(C)[C@@H](C)C(=O)N[C@@H](CCCNC(=N)N)C(=O)NCC(N)=O` [Compound 43, C20DA-gGlu3-Sar15-AEPipAc-Tyr-Phe-NMeLeu-Nle-Dbu-NMeAla-Arg-Gly-NH2] (HELM PEPTIDE1{[O=C(O)CCCCCCCCCCCCCCCCCCC(=O)[*:2]].[gGlu].[gGlu].[gGlu].[Sar].[Sar].[Sar].[Sar].[Sar].[Sar].[Sar].[Sar].[Sar].[Sar].[Sar].[Sar].[Sar].[Sar].[Sar].[O=C(CN1CCN(CCN[*:1])CC1)[*:2]].Y.F.[meL].[Nle].[Dab].[meA].R.G.[am]}$$$$V2.0) gave an MRT in the data set “in vivo” (30 nmol/kg) of 37.7 h. Further, in data set [1], the “Acute Food Intake 24 h” value is recorded as 28% vehicle.

`CCCC[C@H](NC(=O)[C@H](CC(C)C)N(C)C(=O)[C@H](Cc1ccccc1)NC(=O)[C@H](Cc1ccc(O)cc1)NC(=O)CN1CCN(CCNC(=O)CN(C)C(=O)CN(C)C(=O)CN(C)C(=O)CN(C)C(=O)CN(C)C(=O)CN(C)C(=O)CN(C)C(=O)CN(C)C(=O)CN(C)C(=O)CN(C)C(=O)CN(C)C(=O)CN(C)C(=O)CN(C)C(=O)CN(C)C(=O)CN(C)C(=O)CC[C@H](NC(=O)CC[C@H](NC(=O)CC[C@H](NC(=O)CCCCCCCCCCCCCCCCCCC(=O)O)C(=O)O)C(=O)O)C(=O)O)CC1)C(=O)N[C@@H](CCN)C(=O)N1CCC[C@H]1C(=O)N[C@@H](CCCNC(=N)N)C(=O)NCC(N)=O` [Compound 42, C20DA-gGlu3-Sar15-AEPipAc-Tyr-Phe-NMeLeu-Nle-Dbu-Pro-Arg-Gly-NH2] (HELM PEPTIDE1{[O=C(O)CCCCCCCCCCCCCCCCCCC(=O)[*:2]].[gGlu].[gGlu].[gGlu].[Sar].[Sar].[Sar].[Sar].[Sar].[Sar].[Sar].[Sar].[Sar].[Sar].[Sar].[Sar].[Sar].[Sar].[Sar].[O=C(CN1CCN(CCN[*:1])CC1)[*:2]].Y.F.[meL].[Nle].[Dab].P.R.G.[am]}$$$$V2.0) registered an MRT in “in vivo” (30 nmol/kg) of 31.2 h. Moreover, in data set [1], the “Acute Food Intake 24 h” value is recorded as 41% vehicle.

In the case of `CCCC[C@H](NC(=O)[C@H](CC(C)C)N(C)C(=O)[C@H](Cc1ccccc1)NC(=O)[C@H](Cc1ccc(O)cc1)NC(=O)CN1CCN(CCNC(=O)CN(C)C(=O)CN(C)C(=O)CN(C)C(=O)CN(C)C(=O)CN(C)C(=O)CN(C)C(=O)CN(C)C(=O)CN(C)C(=O)CN(C)C(=O)CN(C)C(=O)CN(C)C(=O)CN(C)C(=O)CN(C)C(=O)CN(C)C(=O)CN(C)C(=O)CC[C@H](NC(=O)CC[C@H](NC(=O)CC[C@H](NC(=O)CCCCCCCCCCCCCCCCC(=O)O)C(=O)O)C(=O)O)C(=O)O)CC1)C(=O)N[C@@H](CCCNC(=N)N)C(=O)N1CCC[C@H]1C(=O)N[C@@H](CCCNC(=N)N)C(=O)NCC(N)=O` [Compound 7, C18DA-gGlu3-Sar15-AEPipAc-Tyr-Phe-NMeLeu-Nle-Arg-Pro-Arg-Gly-NH2] (HELM PEPTIDE1{[O=C(O)CCCCCCCCCCCCCCCCC(=O)[*:2]].[gGlu].[gGlu].[gGlu].[Sar].[Sar].[Sar].[Sar].[Sar].[Sar].[Sar].[Sar].[Sar].[Sar].[Sar].[Sar].[Sar].[Sar].[Sar].[O=C(CN1CCN(CCN[*:1])CC1)[*:2]].Y.F.[meL].[Nle].R.P.R.G.[am]}$$$$V2.0), the MRT in “in vivo” and in the data set “in vivo” (30 nmol/kg) was 17.4 h throughout. Also, the “Acute Food Intake 24 h” value in data set [1] is reported as 46% vehicle.

`CCCC[C@H](NC(=O)[C@H](CC(C)C)N(C)C(=O)[C@H](Cc1ccccc1)NC(=O)[C@H](Cc1ccc(O)cc1)NC(=O)CN1CCN(CCNC(=O)CN(C)C(=O)CN(C)C(=O)CN(C)C(=O)CN(C)C(=O)CN(C)C(=O)CN(C)C(=O)CN(C)C(=O)CN(C)C(=O)CN(C)C(=O)CN(C)C(=O)CN(C)C(=O)CN(C)C(=O)CN(C)C(=O)CN(C)C(=O)CN(C)C(=O)CC[C@H](NC(=O)CC[C@H](NC(=O)CC[C@H](NC(=O)CCCCCCCCCCCCCCCCC(=O)O)C(=O)O)C(=O)O)C(=O)O)CC1)C(=O)N[C@@H](CCN)C(=O)N1CCC[C@H]1C(=O)N[C@@H](CCCNC(=N)N)C(=O)NCC(N)=O` [Compound 26, C18DA-gGlu3-Sar15-AEPipAc-Tyr-Phe-NMeLeu-Nle-Dbu-Pro-Arg-Gly-NH2] (HELM PEPTIDE1{[O=C(O)CCCCCCCCCCCCCCCCC(=O)[*:2]].[gGlu].[gGlu].[gGlu].[Sar].[Sar].[Sar].[Sar].[Sar].[Sar].[Sar].[Sar].[Sar].[Sar].[Sar].[Sar].[Sar].[Sar].[Sar].[O=C(CN1CCN(CCN[*:1])CC1)[*:2]].Y.F.[meL].[Nle].[Dab].P.R.G.[am]}$$$$V2.0): in “in vivo” (30 nmol/kg), the MRT was found to be 12.4 h. Also, in data set [1], the “Acute Food Intake 24 h” value came out at 37% vehicle.

As for `CCCC[C@H](NC(=O)[C@H](CC(C)C)N(C)C(=O)[C@H](Cc1ccccc1)NC(=O)[C@H](Cc1ccc(O)cc1)NC(=O)CN1CCN(CCNC(=O)CN(C)C(=O)CN(C)C(=O)CN(C)C(=O)CN(C)C(=O)CN(C)C(=O)CN(C)C(=O)CN(C)C(=O)CN(C)C(=O)CN(C)C(=O)CN(C)C(=O)CN(C)C(=O)CN(C)C(=O)CN(C)C(=O)CN(C)C(=O)CN(C)C(=O)CC[C@H](NC(=O)CC[C@H](NC(=O)CC[C@H](NC(=O)CCCCCCCCCCCCCCCCCCC(=O)O)C(=O)O)C(=O)O)C(=O)O)CC1)C(=O)N[C@@H](CCCN)C(=O)N1CCC[C@H]1C(=O)N[C@@H](CCCNC(=N)N)C(=O)NCC(N)=O` [Compound 1, C20DA-gGlu3-Sar15-AEPipAc-Tyr-Phe-NMeLeu-Nle-Orn-Pro-Arg-Gly-NH2] (HELM PEPTIDE1{[O=C(O)CCCCCCCCCCCCCCCCCCC(=O)[*:2]].[gGlu].[gGlu].[gGlu].[Sar].[Sar].[Sar].[Sar].[Sar].[Sar].[Sar].[Sar].[Sar].[Sar].[Sar].[Sar].[Sar].[Sar].[Sar].[O=C(CN1CCN(CCN[*:1])CC1)[*:2]].Y.F.[meL].[Nle].[Orn].P.R.G.[am]}$$$$V2.0), the MRT in the data set “in vivo” and in “in vivo” (30 nmol/kg) was 38.1 h each time. Further, the “Acute Food Intake 24 h” value in data set [1] is reported as 31% vehicle.
